According to patent US7968575B2, “Nitric oxide donors and uses thereof” (priority 2004, dated 2011):
Entries after “also recorded” stand apart in the source; their conditions may differ.

Key:
isolated rat aorta [1] = test: In vitro vasorelaxation of epinephrine-contracted rat aortic rings (cumulative concentration-response curves); type: cell-based; conditions: isolated rat aorta pre-treated in vitro with 1 μM epinephrine; in words
Excerpt: Male Sprague Dawley rats were anaesthetized using intraperitoneal injection of ketamine and xylazine (50 and 10 milligram per kilogram, respectively) and the thoracic aorta, the large upper portion of the descending aorta, starting at the caudal border of the chest bone, was removed thereafter, while carefully removing the paraadventetial tissue surrounding the vessel. Aortae were cut into rings of 4-5 millimeters and mounted onto the tissue path. The path buffer (Krebs-bicrbonate) was constantly gassed with carbogen and maintained at 37° C. The rings were preloaded under 2 g tension and equilibrated for 90 minutes, while refreshing the buffer every 15 minutes. After stabilization, the rings were contracted with epinephrine (1 μM). Cumulative Concentration-Response Curves (CCRC) were measured for the vasorelaxing effect induced by adding various concentrations, ranging from 10^−10 M to 10^−5 M of Pet-2, Pet-3, Pet-7, Pet-8, Pet-12, Pet-24, Pet-43, Pet-59, Pet-147, Pet-152 and Pet-154, and glyceryltrinitrate (GTN), according to the procedure described in Feelich et al., Molecular Pharmacology, 56:243-253 (1999). The vehicle, which was used for this experiment was water:ethanol:propyleneglycol at proportional ratio of 1:1:1.
The vasorelaxing effect of the thiazole-derived NO-donors according to the present invention was measured on slices of thoracic aorta of rats contracted with epinephrine, as described hereinabove.

c-GMP [2] = test: Cyclic-GMP measurement in aortic rat tissue (radioimmunoassay); type: cell-based; conditions: isolated rat aorta, FIGS. 25, 27 and 33; in words
Procedure: GTN (10^−6 M) was added to the chamber and, 1 minute after exposure to the drug, rings (usually 3-5) were taken, wrapped with aluminum foil and immediately frozen in liquid nitrogen for storage. Control sample group was treated with the vehicle solution only. At the time of analysis, rings were thawed, blotted over a dry gauzed and weighted. A known weight of tissue was homogenized in 2 ml ice-cold modified Hank's balanced salt solution containing (in gram/liter) NaCl 8; KCl 0.4; glucose 1; KH2PO4 0.06; Na2HPO4 0.047; Phenol red 0.017 and further containing 25 mM EDTA (disodium salt). The homogenate was centrifuged at 4000 g (force units) for 10 minutes at 2-4° C. and the supernatant was thereafter transferred into fresh pre-cooled test tube containing 1 ml of acetonitrile. The tubes were vortex mixed for a few seconds and subsequently centrifuged at 4000 g for 5 minutes at 2-4° C., to remove the precipitated protein. Each supernatant was transferred into a clean test tube and evaporated to dryness under a stream of nitrogen at 55° C. The dry residue was reconstituted with 10 volumes of Tris-EDTA buffer pH 7.5 (0.05 M Tris containing 4 mM EDTA). Aliquots of 100 μl of the reconstituted solution in duplicate were used for c-GMP measurements using Amersham RIA kit, as is described in Haj-Yehia & Benet [Pharmacology, 1995, 273, 1, pp. 94-100]. Standard curves were plotted with six concentrations (0, 0.5, 1, 2, 4 and 8 pmoles of c-GMP per tube).
The NO-tolerance effect of GTN and NO-donor compounds according to the present invention was measured by following the production of c-GMP in slices of thoracic aorta of rats. Thus, the production of c-GMP was measured as described in the methods section above for the reference NO-donor compound GTN, and for the NO-donors of the present invention Pet-2, Pet-3, Pet-7, Pet-8, Pet-10, Pet-12, Pet-24, Pet-59, Pet-147, Pet-149, Pet-152, Pet-154 and Pet-155.

c-GMP [3] = test: Induction of in vivo nitrate tolerance (cGMP in aorta isolated after 16 hour infusion); design: species or system rat; conditions: in words; for tolerance induction in vivo: cGMP accumulation in isolated aorta of rats pre-treated in vivo with the compound
Procedure: For c-GMP levels and tolerance development, the rat's thoracic aorta was isolated after exposure to the tested compound in vivo, and measured as described above in the in vitro assays.
Male Sprague Dawley rats (220 to 250 grams) were housed under constant temperature and humidity conditions. Light was maintained at a 12/12 light dark cycle. Except for 12 hours before the experiment, when food fasting was initiated, all rats had free access to standard rat pellet diet and tap water. The animals were anesthetized by intraperitoneal injection of ketamine and xylazine combination (50 and 10 milligram per kilogram, respectively). […] The catheters were filled with normal saline solution containing 1000 IU/ml of heparin and plugged with a metal pin. Catheters were externalized to the back of the neck region and secured by a polyester felt disk.
After implantation, the rats were individually housed until they regained their preoperative weight and appeared healthy (3 to 4 days post-operation). At this time point (day 0), an osmotic mini-pump (Alza Corp., Palo Alto, Calif.) delivering constant volume (10 μl/hour) of vehicle or drug was connected to one of the intravenous catheters.
For inducing tolerance to the tested NO-donor according to the present invention, the animals received 200 μg/hour of the tested compound for 16 hours (short-term-induced tolerance). A similar number of animals were processed by the same surgical procedure and received the vehicle alone (10 μl/hour of a solution consisting of 30% ethanol and 30% propylene glycol in sterile distilled water for injection).
At the end of the infusion periods used for the development of tolerance (16 hour), the rats were anesthetized as described above, the two catheters were externalized and the delivering catheters were disconnected from the mini-pump. The abdomen was opened by midline incision and the thoracic aorta were isolated, washed and cleaned from the surrounding tissues. Strips of the treated aortas were pooled in chambers containing Krebs-Hanseliet buffer (10 ml), and exposed to 1 μM of the tested NO-donor (final concentration) for 120 seconds. The tissues were quickly collected and frozen in liquid nitrogen for cGMP measurement, described hereinabove.

isolated rat aorta [4] = test: In vitro induction of tolerance: vasorelaxation of aortic rings pre-exposed to the NO-releasing compound; type: cell-based; conditions: vasorelaxation in rings pre-treated with 0.44 mM of the compound versus control rings; in words
Procedure: Aortic rings were prepared as described hereinabove, and were exposed to 0.44 mM GTN (vehicle was water:ethanol:propyleneglycol at proportional ratio of 1:1:1) for 1 hour before CCRC construction, to thereby induce tolerance to nitroglycerine. At the end of the tolerance induction period, rings were thrice washed with the path buffer (Krebs-bicrbonate) every 15 minutes for the following hour and then CCRC for vasorelaxation on GTN-induced tolerance rings were constructed for GTN (pretreated versus untreated rings, FIG. 15), in order to verify the ability to induce and measure GTN tolerance induction in vitro
Attempted induction of tolerance to the NO-donating compounds of the present invention was performed under the same conditions as for GTN. Thus, in an exemplary experiment, rings were exposed to 0.44 mM solution of Pet-3 in the attempt to induce tolerance for Pet-3. CCRC were then measured for the vasorelaxing effect of Pet-3 on a group of rings which were pre-exposed to Pet-3 as to induce tolerance to Pet-3, and for an untreated control group. The above protocol was repeated with Pet-2, Pet-7, Pet-8, Pet-12, Pet-24, Pet-43, Pet-149 and Pet-152.

isolated rat aorta [5] = test: Cross-tolerance studies on aortic rings (GTN / Pet-12 pre-treatment); type: cell-based; conditions: in words
Procedure: Cross-tolerance studies were conducted using the same technique described above for measuring vasorelaxation of aortic rings from rats. Two groups of aortic rings samples were pre-treated with GTN, then one group was measured for vasorelaxation by GTN and the second group for vasorelaxation by Pet-12, an exemplary NO-donor according to the present invention. For the opposite cross-tolerance studies, two groups of aortic rings samples were pre-treated with Pet-12, then one group was measured for vasorelaxation by GTN and the second group for vasorelaxation by Pet-12.

Structure (SMILES): Cc1nc(NC(=O)[C@@H](C)c2ccc(CC(C)C)cc2)sc1CCO[N+](=O)[O-] (stereo in doubt) [Pet-152, 2-(4-Isobutyl-phenyl)-N-[4-methyl-5-(2-nitrooxy-ethyl)-thiazol-2-yl]-propionamide]
- vasorelaxation effect as compared with glyceryltrinitrate (isolated rat aorta [1]): superior
- levels of cGMP as compared with GTN (c-GMP [2]): increased levels of cGMP

Structure (SMILES): CCc1nc(C)c(CCO[N+](=O)[O-])s1 [Pet-2, 2-Ethyl-4-methyl-5-(2-nitrooxy-ethyl)-thiazole]
- level of cGMP following a repeated treatment in vivo (c-GMP [3]; aorta of rats infused 200 μg/hour for 16 hours, then exposed to 1 μM compound for 120 seconds): remained substantially unchanged
- tolerance induction in vivo (c-GMP [3]): absence of tolerance induction; also recorded: absence of tolerance effect
- vasorelaxation effect as compared with glyceryltrinitrate (isolated rat aorta [1]): superior

Structure (SMILES): Cc1nc(C)c(CCO[N+](=O)[O-])s1 [Pet-3, 2,4-Dimethyl-5-(2-nitrooxy-ethyl)-thiazole]
- vasorelaxation effect as compared with glyceryltrinitrate (isolated rat aorta [1]): superior
- tolerance induction in vitro (isolated rat aorta [4]): absence of tolerance induction
- levels of cGMP as compared with GTN (c-GMP [2]): increased levels of cGMP

Structure (SMILES): Cc1nc(N(C)C)sc1CCO[N+](=O)[O-] [Pet-7, Dimethyl-[4-methyl-5-(2-nitrooxy-ethyl)-thiazol-2-yl]-amine]
- tolerance induction in vitro (isolated rat aorta [4]): absence of tolerance induction
- levels of cGMP as compared with GTN (c-GMP [2]): increased levels of cGMP

Structure (SMILES): Cc1nc(-c2ccccc2)sc1CCO[N+](=O)[O-] [Pet-8, 4-Methyl-5-(2-nitrooxy-ethyl)-2-phenyl-thiazole]
- vasorelaxation effect as compared with glyceryltrinitrate (isolated rat aorta [1]): superior
- levels of cGMP as compared with GTN (c-GMP [2]): increased levels of cGMP

Structure (SMILES): Cc1nc(N)sc1CCO[N+](=O)[O-] [Pet-10, 4-methyl-5-(2-nitrooxy-ethyl)-thiazole-2-ylamine]
- levels of cGMP as compared with GTN (c-GMP [2]): increased levels of cGMP

Structure (SMILES): Cc1nc(-c2cccnc2)sc1CCO[N+](=O)[O-] [Pet-12, 3-[4-Methyl-5-(2-nitrooxy-ethyl)-thiazole-2-yl]-pyridine]
- tolerance induction in vivo (c-GMP [3]): absence of tolerance induction; also recorded: absence of tolerance effect; also recorded: lack of tolerance induction
- vasorelaxation in GTN-tolerant rings (cross-tolerance) (isolated rat aorta [5]; aortic rings pre-treated with epinephrine and then with GTN): absence of tolerance induction effect; also recorded: has no effect on the vasorelaxation capacity
- tolerance after pre-treatment with Pet-12 (to itself and to GTN) (isolated rat aorta [5]; aortic rings pre-treated with epinephrine and then with Pet-12): absence of tolerance induction effect; also recorded: does not evoke tolerance to itself not to GTN
- tolerance induction in vitro (isolated rat aorta [4]): absence of tolerance induction

Structure (SMILES): CNc1cncc(-c2nc(C)c(CCO[N+](=O)[O-])s2)n1 [Pet-24, Methyl-{6-[4-methyl-5-(2-nitrooxy-ethyl)-thiazol-2-yl]-pyrazin-2-yl}-amine]
- tolerance induction in vitro (isolated rat aorta [4]): absence of tolerance induction
- levels of cGMP as compared with GTN (c-GMP [2]): increased levels of cGMP

Structure (SMILES): Cc1nc(Nc2nc(C)c(CCO[N+](=O)[O-])s2)sc1CCO[N+](=O)[O-] [Pet-43, Bis-[4-methyl-5-(2-nitrooxy-ethyl)-thiazol-2-yl]-amine]
- vasorelaxation effect as compared with glyceryltrinitrate (isolated rat aorta [1]): superior
- tolerance induction in vitro (isolated rat aorta [4]): absence of tolerance induction

Structure (SMILES): Cc1nc(-c2ccc(C(F)(F)F)cc2)sc1CCO[N+](=O)[O-] [Pet-59, 4-Methyl-5-(2-nitrooxy-ethyl)-2-(4-trifluoromethyl-phenyl)-thiazole]
- vasorelaxation effect as compared with glyceryltrinitrate (isolated rat aorta [1]): superior
- levels of cGMP as compared with GTN (c-GMP [2]): increased levels of cGMP

Structure (SMILES): CCNc1nc(C)c(CCO[N+](=O)[O-])s1 [Pet-147, Ethyl-[4-methyl-5-(2-nitrooxy-ethyl)-thiazol-2-yl]-amine]
- levels of cGMP as compared with GTN (c-GMP [2]): increased levels of cGMP

Structure (SMILES): Cc1nc(Nc2cccc3ccccc23)sc1CCO[N+](=O)[O-] [Pet-149, [4-Methyl-5-(2-nitrooxy-ethyl)-thiazol-2-yl]-naphthalen-1-yl-amine]
- vasorelaxation effect as compared with glyceryltrinitrate (isolated rat aorta [1]): superior
- tolerance induction in vitro (isolated rat aorta [4]): absence of tolerance induction
- levels of cGMP as compared with GTN (c-GMP [2]): increased levels of cGMP

Structure (SMILES): Cc1nc(NC(=O)c2cccnc2)sc1CCO[N+](=O)[O-] [Pet-154, N-[4-methyl-5-(2-nitrooxy-ethyl)-thiazol-2-yl]-nicotinamide]
- levels of cGMP as compared with GTN (c-GMP [2]): increased levels of cGMP

Structure (SMILES): C=CCNc1nc(C)c(CCO[N+](=O)[O-])s1 [Pet-155, allyl-[4-methyl-5-(2-nitrooxy-ethyl)-thiazol-2-yl]-amine]
- vasorelaxation effect as compared with glyceryltrinitrate (isolated rat aorta [1]): superior
- levels of cGMP as compared with GTN (c-GMP [2]): increased levels of cGMP
